Values joined by “and” are separate entries in the source; they are usually repeats but may differ in a detail not shown here. Identical values can stand only once. Marks after values point to notes of the source that are not given here.
What was measured:
[1] = Pharmacokinetic study using Formulation D11 (IV, IP, SC) and Formulation C (PO); assay type: in vivo, Crl: CD1 mice
Description: Formulation D11, at a final concentration of 6 mg/ml of Compound 1 was used for IV, IP and SC bolus administration. […] Prior to dosing, animals (female Crl: CD1 mice; 6 weeks of age, 22-24 g) were weighed, randomly selected and assigned to the different treatment groups. Compound 1 was administered by the intravenous (IV), subcutaneous (SC), intraperitoneal (IP), or oral (PO) route to the assigned animals. The dosing volume of Compound 1 was 5 mL per kg body weight. Animals were anesthetized prior to bleeding with 5% isoflurane. Blood was collected into microtainer tubes containing the anticoagulant K2EDTA by cardiac puncture from each of 4 animals per bleeding timepoint (2 min, 5 min, 15 min, 30 min, 1 h, 2 h, 4 h and 8 h). Following collection, the samples were centrifuged and the plasma obtained from each sample was recovered and stored frozen (at approximately −80° C.) pending analysis. […] Samples were analysed by LC/MS/MS. Standard curve ranged from 25 to 2000 ng/mL with limit of quantitation (LOQ)≦25 ng/mL and limit of detection (LOD) of 10 ng/mL.
Plasma values of Compound 1 falling below the limit of quantitation (LOQ) were set to zero. Mean concentration values and standard deviation (SD) were calculated at each timepoints of the pharmacokinetic study (n=4 animals/timepoint). The following pharmacokinetic parameters were calculated: area under the plasma concentration versus time curve from time zero to the last measurable concentration time point (AUC0-t), area under the plasma concentration versus time curve extrapolated to infinity (AUCinf), maximum observed plasma concentration (Cmax), time of maximum plasma concentration (tmax), apparent first-order terminal elimination rate constant (kel), apparent first-order terminal elimination half-life will be calculated as 0.693/kel (t1/2). The systemic clearance (CL) of Compound 1 after intravenous administration was calculated using Dose/AUCinf. Pharmacokinetic parameters were calculated using Kinetica™ 4.1.1 (Innaphase Corporation, Philadelphia, Pa.).

[2] = Population pharmacokinetic analysis (NONMEM), monkey; assay type: in vivo; conditions: cynomolgus, plasma, iv, Monkey (CIV); for half-life: monkey; for Vd: read-out: Vss
Source text: (§1) Plasma concentrations of Compound 1 were obtained from mice, rats, and monkeys following intravenous injection or continuous infusion. Compound 1 pharmacokinetic parameters in mice, rats, and monkeys were estimated using population pharmacokinetic analysis, a function of the software program NONMEM™ (version 5). Typical population pharmacokinetic parameters for Compound 1 in humans were extrapolated from allometric equations that were derived from pharmacokinetic parameters estimated in the three animal species. […] A two-compartment model with a first-order elimination from the central compartment adequately described Compound 1 plasma concentration-time profiles following intravenous bolus injection (30 mg/kg) in mice and rats, 7-day continuous infusion in rats (50 to 170 mg/kg/day), and 14-day continuous infusion in monkeys (5 to 30 mg/kg/day).

[3] = Pharmacokinetics of Formulation D11 given CIV for 14 days in monkeys; assay type: in vivo, Cynomolgus monkeys; conditions: for Css / T1/2z / Vd / AUC / clearance: 14-day CIV, Mean (SD); for Css: average between 30 h and 14 days; for T1/2z: end of treatment; for Vd / AUC / clearance: iv
Description: Cynomolgus monkeys received continuous IV infusion over 14 days of Compound 1 at 5 mg/kg/day, 15 mg/kg/day, or 30 mg/kg/day. The drug was infused intravenously (24 hours/day) into the femoral vein at a dose rate of 2 ml/kg/hour for 14 consecutive days. Blood samples were removed from each monkey on Days 1, 2, 6, 10, and 15 of the treatment period. Monkeys were bled by venipuncture and samples were collected into tubes containing K2EDTA. On Day 1, samples were collected at 2, 6, and 12 hours after initiation of treatment. Additional samples were collected at 30 hours after the start of infusion (Day 2). On Days 6 and 10, samples were collected at approximately 6 hours after the bag changes. At the end of the 14 days of infusion, on Day 15, samples were collected at 1 hour prior to cessation of dose administration, and at 5 min, 30 min, 1 h, 2 h, 4 h, 8 h, and 24 h following cessation of dose administration.

[4] = Population pharmacokinetic analysis (NONMEM), rat; assay type: in vivo; conditions: plasma, Rat (IV + CIV); for Vd: read-out: Vss; for half-life: rat, iv
Source text: as §1

[5] = population PK, read-out: t1/2, α (converted)
[6] = population PK, read-out: t1/2, β (converted)
[7] = cynomolgus monkey, plasma, intravenous, CIV, 30 mg/kg/day
[8] = cynomolgus monkey, plasma, 5 mg/kg/day
[9] = cynomolgus monkey, plasma, 15 mg/kg/day

Question: With `CC(C)=CCC/C(C)=C/CC/C(C)=C/CN1C(=O)c2cccc(O)c2Nc2c(O)cc(O)cc21` [Compound 1, 10-farnesyl-4,6,8-trihydroxy-dibenzodiazepin-11-one] as the molecule, how does the “tissue distribution (in words)” value ([1]; IV and IP dosing 30 mg/kg, 30 min) read?
Answer: Its value is “well distributed”.

Question: And the “tissue levels (in words)” value ([1]; SC dosing 30 mg/kg, 30 min, versus IP)?
Answer: Its value is “significantly lower”.

Question: And the “time plasma concentration maintained at therapeutically relevant levels” value ([1]; intraperitoneal and subcutaneous administrations, 30 mg/kg, Formulation D11)?
Answer: The value was “over 8 hours”.

Question: And the half-life [2, 5]?
Answer: Its half-life is 0.308 h.

Question: And the half-life [2, 6]?
Answer: Its half-life is 8.05 h.

Question: What about the clearance ([2]; WT 3.8 Kg) of the same molecule?
Answer: Its clearance is 28 mL/min.

Question: What about the Vd ([2]; WT 3.8 Kg) of the same molecule?
Answer: The Vd was 2.36 L.

Question: What about the clearance ([2]; population PK) of the same molecule?
Answer: Its clearance is 7.35 mL/min/kg.

Question: What about the Vd ([2]; population PK) of the same molecule?
Answer: Its Vd is 0.622 L/kg.

Question: And the “AUC increase between groups” value ([3]; 15 mg/kg/day versus 5 mg/kg/day)?
Answer: The value was 3.4 fold.

Question: What about the “AUC increase between groups” value ([3]; 30 mg/kg/day versus 15 mg/kg/day) of the same molecule?
Answer: Its value is 4.7 fold.

Question: What about the Css ([3]; 5 mg/kg/day) of the same molecule?
Answer: The Css was 358^b (85)^ ng/mL.

Question: What about the T1/2z ([3]; 5 mg/kg/day) of the same molecule?
Answer: The T1/2z was 12 (3) h.

Question: What about the Css ([3]; 15 mg/kg/day) of the same molecule?
Answer: The Css was 1,173 (340) ng/mL.

Question: What about the T1/2z ([3]; 15 mg/kg/day) of the same molecule?
Answer: The T1/2z was 8.3 (2.2) h.

Question: What about the Css ([3]; 30 mg/kg/day) of the same molecule?
Answer: The Css was 6,283 (3,650) ng/mL.

Question: What about the T1/2z ([3]; 30 mg/kg/day) of the same molecule?
Answer: The T1/2z was 8.1 (1.0) h.

Question: And the concentration at 1 day [3, 7]?
Answer: Its concentration at 1 day is 2810 ng/mL and ~6.1 µM.

Question: And the concentration at 6 day [3, 7]?
Answer: Its concentration at 6 day is 4350 ng/mL and ~9.4 µM.

Question: And the concentration at 10 day [3, 7]?
Answer: The concentration at 10 day was ~15 µM and 6860 ng/mL.

Question: And the concentration at 15 day [3, 7]?
Answer: The concentration at 15 day was 8560 ng/mL and ~18.5 µM.

Question: What about the Vd ([3]; cynomolgus monkey, plasma, 5 mg/kg/day, 5 mg/kg/day, read-out: Vss) of the same molecule?
Answer: The Vd was 7.1 L/kg.

Question: What about the Vd ([3]; cynomolgus monkey, plasma, 5 mg/kg/day, 5 mg/kg/day, read-out: Vz) of the same molecule?
Answer: The Vd was 10 L/kg.

Question: And the Vd ([3]; cynomolgus monkey, plasma, 15 mg/kg/day, 15 mg/kg/day, read-out: Vss)?
Answer: Its Vd is 3.6 L/kg.

Question: What about the AUC [3, 8] of the same molecule?
Answer: Its AUC is 119 µg·h/mL.

Question: And the clearance [3, 8]?
Answer: The clearance was 10.2 mL/min/kg.

Question: And the AUC [3, 9]?
Answer: Its AUC is 400 µg·h/mL.

Question: What about the clearance [3, 9] of the same molecule?
Answer: Its clearance is 9.33 mL/min/kg.

Question: What about the AUC ([3]; cynomolgus monkey, plasma, 30 mg/kg/day) of the same molecule?
Answer: The AUC was 1870 µg·h/mL.

Question: What about the Vd ([3]; cynomolgus, cynomolgus monkey, plasma, 15 mg/kg/day, 15 mg/kg/day, read-out: Vz) of the same molecule?
Answer: The Vd was 6.8 L/kg.

Question: What about the Vd ([3]; cynomolgus, cynomolgus monkey, plasma, 30 mg/kg/day, 30 mg/kg/day, read-out: Vss) of the same molecule?
Answer: The Vd was 10.7 L/kg.

Question: And the Vd ([3]; cynomolgus, cynomolgus monkey, plasma, 30 mg/kg/day, 30 mg/kg/day, read-out: Vz)?
Answer: The Vd was 3.2 L/kg.

Question: What about the clearance ([3]; cynomolgus, cynomolgus monkey, plasma, 30 mg/kg/day) of the same molecule?
Answer: The clearance was 4.5 mL/min/kg.

Question: What about the clearance ([4]; WT 0.225 Kg) of the same molecule?
Answer: Its clearance is 4.08 mL/min.

Question: And the Vd ([4]; WT 0.225 Kg)?
Answer: The Vd was 0.081 L.

Question: What about the clearance ([4]; population PK) of the same molecule?
Answer: Its clearance is 18.2 mL/min/kg.

Question: And the Vd ([4]; population PK)?
Answer: The Vd was 0.362 L/kg.

Question: And the half-life [4, 5]?
Answer: The half-life was 0.075 h.

Question: And the half-life [4, 6]?
Answer: The half-life was 2.5 h.
